# Assay results from patent US8618138B2, “Indole amide derivatives and related compounds for use in the treatment of neurodegenerative diseases” (Katholieke Universiteit Leuven, K.U. Leuven R&D, priority 2009, dated 2013).
# Key:
# [1] = system: TAU and phospho-isoforms thereof; experiment: In-vivo inhibition of pathological TAU-phosphorylation, Western analysis of soluble brain protein fractions; set-up: species or system Human TAU R406W transgenic mice
# Source text: Quantification of Western analyses of TAU and phospho-TAU species of the soluble protein fraction prepared from […] of all individual mice used in this study (n=10 for each treatment group). TAU signals of all individual mice were normalized against neuron specific enolase (NSE) using antibodies (monoclonal anti-NSE antibody, clone 37E4, Abcam) to correct for possible loading control differences. The graphs depict the mean normalised TAU signals±SEM. The TAU signals were obtained by using antibodies directed against:
# (A) pan-TAU (anti-TAU monoclonal antibody (mAb) HT7, Thermo Scientific; detects all tau species independent of phosphorylation status),
# (B) phosphorylated tau on pS202, T205 (AD2 anti-TAU antibody, Biorad) and unphosphorylated tau on pS202 (anti-TAU-1 antibody, clone PC1C6, Millipore), the graph depicts the ratio of AD2/TAU-1;
# (C) phosphorylated tau on pT231 (AT180 anti-TAU mAb, Thermo Scientific), and
# (D) phosphorylated tau on pT181 (AT270 anti-TAU mAb, Thermo Scientific).
# Statistics: students two-tailed T-test*p<0.05, **p<0.01.
# Human TAU R406W transgenic mice (Zhang et al, J. of Neuroscience 24(19):4657-4667, 2004) were treated once-a-day subcutaneously for 4 weeks with compound D5 (see table 1) dissolved in arachidin oil at a dose of 35 mg/kg. Correspondingly vehicle treated transgenics were included as controls. At the end of the treatment period mice were sacrificed and brainstem was stereotactically collected. Soluble protein fractions were prepared (Terwel et al, J Biol Chem 280(5):3963-73, 2005) from the brain stem and subjected to Western analysis using antibodies directed against TAU and several different phospho-isoforms thereof.
# [2] = system: M17-TAU P301L cells; experiment: TAU cytotoxicity assay: LDH leakage of retinoic acid incubated M17-TAU P301L cells; format: cell-based, human; conditions: Homo sapiens, 168 h, reduction of LDH activity of retinoic acid incubated M17-TAU P301L cells, 7 days
# Outline: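 M17 neuroblastoma cells stably expressing human TAU P301L, seeded at 2500 cells/cm2 in Optimem with 1% FCS, then given 2.5 μM retinoic acid (stock before 1:1 addition) and grown 7 days at 37 °C. Cytotoxicity read as LDH leaked into medium; EC50 derived from these measurements.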
# [3] = TAU R406W transgenic mice, 35 mg/kg subcutaneously once-a-day for 4 weeks, vs vehicle, Western blot of soluble protein fraction
Structure (SMILES),"Phosphorylation of threonine residue 181 of TAU (AT270, FIG. 3 D) [1, 3]","TAU phosphorylated at serine 202 and tyrosine 205 (ratio AD2/TAU-1, FIG. 3 B) [1, 3]","TAU phosphorylated at tyrosine residue 231 (AT180, FIG. 3 C) [1, 3]","total TAU levels (pan-TAU, HT7 antibody, FIG. 3 A) [1, 3]","pathological TAU-species in-vivo (FIG. 3 legend) ([1]; Western analyses of TAU and phospho-TAU species, soluble protein fraction, n=10 per group)",EC50 [2]
"O=C(NCCc1c[nH]c2ccc(Cl)cc12)c1cc(Cc2cc(F)ccc2F)on1 [Example D5, N-(2-(5-chloro-1H-indol-3-yl)ethyl)-5-(2,5-difluorobenzyl)isoxazole-3-carboxamide]",not affected,robust and statistically significant reduction,robust and statistically significant reduction,not statistically significant affected,reduces pathological TAU-species in-vivo,12 nM
"O=C(NCCc1c[nH]c2ccc(Cl)cc12)c1cc(C(O)c2ccccc2)on1 (centres unmarked) [Example D195, N-(2-(5-chloro-1H-indol-3-yl)ethyl)-5-(hydroxy(phenyl)methyl)isoxazole-3-carboxamide]",–,–,–,–,–,101 nM
"CCOCC1CC(C(=O)NCCc2c[nH]c3ccc(Cl)cc23)=NO1 (centres unmarked) [Example D216, N-(2-(5-chloro-1H-indol-3-yl)ethyl)-5-(ethoxymethyl)-4,5-dihydroisoxazole-3-carboxamide]",–,–,–,–,–,77 nM
